Experiment: gradient 5% acetonitrile 3 min, to 50% in 2 min, to 85% in 15 min, held 3 min, 100 µL/min
Details: column: Zorbax Extend-C18 2.1 x 50 mm; eluents: water / acetonitrile, 0.1% formic acid
Outline: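 Retention times of pure standards were taken from adduct peaks that were selected by computer and manually inspected. Over 3 months, mixtures of ~100 molecules were run by HPLC–quadrupole time-of-flight mass spectrometry in positive and negative ionization mode. The Zorbax Extend-C18 column (2.1 × 50 mm, 1.8 μm) ran at 100 μL/min in water and acetonitrile, each containing 0.1% formic acid, with 40 μL dead volume and 900 μL dwell volume.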

Structure (SMILES)	RP-LC retention time [s]
O=C(NCCOc1ccc(-c2ccccc2)nn1)c1ccc(=O)[nH]n1	600
COCCC1CCOC2(CCN(C(=O)C3CC3)CC2)C1 (stereo not drawn)	710
Cc1ccc(S(=O)(=O)Nc2ccc(Nc3cc(-n4cccn4)ncn3)cc2)c(C)c1	888
COc1cc(NC(=O)c2noc3c2CCCC3)cc(OC)c1OC	876
COc1cccc(S(=O)(=O)N2CCC(n3cnnc3-c3ccccc3)CC2)c1	775
Cc1cccc(CNC(=O)c2cccc(C3CCCN(C(=O)NC(C)C)C3)c2)c1 (stereo not drawn)	894
CNC(=O)CCc1nc2ccccc2n(CC(=O)NCc2ccc(C)cc2)c1=O	695
CN(C)c1cccc(-c2nc(-c3cn(Cc4cccc(F)c4)nn3)no2)c1	677
CCC(=O)N1CCc2c(c(C(=O)N3CCC(C(=O)NCc4ccc(OC)cc4)CC3)nn2C)C1	640
CCn1ccc(C(=O)N2CCCn3nc(-c4ccc(C)cc4)cc3C2)n1	805
CCCN1C(=O)COc2cc(-c3noc(C(=O)NCCc4ccc(S(N)(=O)=O)cc4)n3)ccc21	771
O=C(Nc1ccc(F)cc1F)C1CCN(C(=O)c2cccn2-c2cccnc2)CC1	696
O=C(c1nc(-c2ccc(Cl)cc2)n2c1CCCCC2)N1CCN(c2ncccn2)CC1	767
CCC(=O)Nc1c(C)noc1/C=C/c1ccc(S(=O)(=O)Nc2ccc(S(N)(=O)=O)cc2)s1	719
O=C(Cc1c[nH]c2ccccc12)Nc1cc(-c2ccccn2)no1	754
O=C(NC1CCN(Cc2ccccc2)CC1)c1cc2c(=O)n(Cc3ccccc3)ccc2s1	688
O=C(Nc1ccc(Cl)c(Cl)c1)N1CCN(Cc2ccsc2)CC1	598
CC(=O)OCC(=O)[C@@]12N=C(C)O[C@@H]1C[C@H]1[C@@H]3CCC4=CC(=O)C=C[C@]4(C)[C@H]3[C@@H](O)C[C@@]12C	862
CC1CCCN(S(=O)(=O)c2ccc(-n3cnc(C(=O)N4CCCCCC4)c3)nc2)C1 (stereo not drawn)	920
COC(=O)c1ccc2c(=O)n(-c3ccc(C)c(F)c3)c(N3CCSC3)nc2c1	1150
Cn1ccnc1SCC(=O)Nc1nc(-c2ccc(F)cc2)cs1	639
COc1ccc(NC(=O)Cn2cnc(-c3nc(C)cs3)c2)cc1Cl	699

Structure (SMILES)	RP-LC retention time [s]
CCOc1ccc(S(=O)(=O)N2CCCC(C(=O)NCc3ccncc3)C2)cc1C (stereo not drawn)	659
COc1ccc(NC(=O)Cn2c(=O)c(CCC(=O)NCC(C)C)nc3ccccc32)cc1	798
Cc1cc(=O)n(CC(=O)Nc2ccc3c(c2)OCCO3)c(N)n1	542
Cc1nc(C)c(CCNC(=O)c2ccc(C)c([N+](=O)[O-])c2)s1	614
c1ccc(-c2noc(-c3ccccc3OC3CCN(Cc4nccs4)C3)n2)cc1 (stereo not drawn)	750
Cc1cc(NC(=O)c2cccn2-c2cccnc2)ccc1Br	881
CCCCC(=O)N1c2nc(-c3ccc(F)cc3)nn2C2(CCCCC2)[C@@H]2CCCC[C@@H]21	1210
O=C(NCc1ccccn1)c1nnc(-c2ccc(S(=O)(=O)N3CCCCC3)cc2)o1	732
Cc1ccsc1C(=O)Nc1cnc(-c2ccc(Cl)cc2)nc1	1110
Cc1csc(NC(=O)CSc2ccc(-c3cccnc3)nn2)n1	589
CC(=O)Nc1ccc(-n2cnc(C(=O)N3CCN(c4cc(C)ccc4C)CC3)c2)nc1	790
Cc1noc(-c2cc(=O)n(CC(=O)Nc3ccc(Cl)cc3)c3ccccc23)n1	915
Cc1ccc(S(=O)(=O)N2CC(=O)N(C3CCCC3)C3(CCCCC3)C2)c(C)c1	1270
COc1ccccc1NC(=O)N1CC(c2nc(C)no2)C2(CCOCC2)C1 (stereo not drawn)	676
Cc1cc2nc(N3CCOCC3)n(CC(=O)Nc3ccc(N(C)C)cc3)c(=O)c2n1C	623
O=C(NCCC1=CCCCC1)c1ccc2c(c1)NC(=O)C1CCCCN21 (stereo not drawn)	930
COC(=O)C1C(O)CCC2CN3CCc4c([nH]c5ccccc45)C3CC21 (stereo not drawn)	673
CC(=O)Nc1ccc(C(=O)N2CC(C)CC(C)C2)o1 (stereo not drawn)	739
O=c1n(Cc2ccccc2)nc2c(S(=O)(=O)N3CCCCC3)cccn12	647
CCOc1ccccc1CNC(=O)c1ccc2[nH]c3c(c2c1)CN(C(C)=O)CC3	649
Cc1nnc(NC(=O)CN2CCN(c3ccccc3F)C2=O)s1	626
CCc1nc2cc(N3CCC(C(=O)NCCN4CCCCCC4)CC3)cnc2nc1CC	613

Structure (SMILES)	RP-LC retention time [s]
CCCN(CC1CCOC1)S(=O)(=O)Cc1ccccc1F (stereo not drawn)	878
O=C(Nc1ncc(SCCN2CCCC2)s1)[C@]1(c2ccc(S(=O)(=O)C3CC3)cc2)C[C@H]1C1CCCCC1	854
Cn1c(SCc2ccc([N+](=O)[O-])cc2)nnc1-c1ccc2c(c1)OCO2	721
COc1ccc(S(=O)(=O)N2CCN(c3ccccn3)CC2)cc1OC	588
Cc1ccc(CN2CCCn3nc(C(=O)NCc4ccco4)cc3C2=O)cc1	804
Cn1cccc1C(=O)N1CCC2(CC1)NC(=O)N(Cc1ccccc1Cl)C2=O	790
COc1ccc(NC(=O)C2CCN(c3nnc4cccc(C)n34)CC2)cc1Cl	700
Cc1ccc(CNC(=O)Cn2nc(C)c3nn(-c4ccccc4)c(C)c3c2=O)o1	816
CC1(C(=O)NCc2ccc3c(c2)OCO3)Oc2cccnc2NC1=O (stereo not drawn)	672
Nc1ccc(CCN2CCN(c3cccc(C(F)(F)F)c3)CC2)cc1	633
Cc1ccc(S(=O)(=O)N2C[C@@H](F)C[C@H]2C(=O)N2CCc3ccccc3C2)cc1F	954
CCCCNC(=O)C(C)n1nc(C)c2nn(-c3ccccc3)c(C)c2c1=O (stereo not drawn)	864
COc1ccc(-c2noc(C3CCCN3C(=O)c3cc(F)cc(F)c3)n2)cc1 (stereo not drawn)	1020
CCn1cnc(S(=O)(=O)N2CCCC(C(=O)Nc3ccc(F)cc3F)C2)c1 (stereo not drawn)	742
COc1ccc(N2CC(c3noc(-c4cccc(Cl)c4)n3)CC2=O)cc1 (stereo not drawn)	1030
Cc1ccc(S(=O)(=O)N2CCC(c3nc(-c4ccncc4)no3)CC2)cc1C	983
CC(=O)c1cccc(NC(=O)Cn2nc3c4cc(-c5ccc(Cl)cc5)nn4ccn3c2=O)c1	902
COc1ccc(CCc2nc(-c3ccc4c(c3)nc(C)c(=O)n4C)no2)cc1	946
Cc1nc2cc(-c3noc(/C=C/c4ccco4)n3)ccc2n(C2CCCC2)c1=O	1280
O=S(=O)(Nc1ccc(F)cc1)c1cccn2cnnc12	659
Cc1ccc(C2CC(=O)c3cnc(Nc4nc(C)c5cc(C)c(C)cc5n4)nc3C2)cc1 (stereo not drawn)	862
CC(C)Oc1cccc(NC(=O)C2CCN(S(C)(=O)=O)c3ccccc3O2)c1 (stereo not drawn)	830

Structure (SMILES)	RP-LC retention time [s]
Cc1cccn2cc(C(=O)NCc3ccc(Cl)cc3)nc12	704
CCc1cc(=O)n(CC(=O)Nc2cc(C)cc(C)c2)c(N2CCOCC2)n1	802
CC(=O)N1CCc2cc(N3CC(C(=O)NCc4ccccc4C)CC3=O)ccc21 (stereo not drawn)	707
CCn1c(C(=O)N2CCN(c3ccccn3)CC2)cc2c(-c3cccs3)nn(-c3ccccc3)c21	776
Cc1ccc(-c2csc(NC(=O)C(C)(C)C)n2)cc1	1080
COc1ccc(NC(=O)Cn2c(=O)n(-c3ccc(C)cc3)c(=O)c3c2cc(C)n3C)c(OC)c1	872
COc1cccc(CNC2=NCCNC23CCN(S(=O)(=O)c2ccc(C)cc2)CC3)c1	717
Cc1ccc(Cn2c(=O)n(CCNC(=O)c3ccc4c(c3)OCO4)c3ncccc32)cc1	824
Cc1cnn(CC(=O)N2CCC3(CCC3O)CC2)c1 (stereo not drawn)	607
COc1ccc(C2(C(=O)N3CCCC(c4nc(C5CCOCC5)no4)C3)CC2)cc1 (stereo not drawn)	822
Cc1cn(-c2ccc(SCC(=O)NCc3ccc4c(c3)OCO4)nn2)cn1	558
CC1=NS(=O)(=O)N(Cc2ccccc2)C=C1C(=O)OCc1ccccc1C	1170
COc1cc(C)c(C)cc1S(=O)(=O)Nc1ccc2c(c1)C(=O)NCCO2	678
O=C(NC1CCCCCCC1)C1CC(=O)N(CCc2c[nH]c3ccc(Cl)cc23)C1 (stereo not drawn)	732
CCCCCCCC1(C)NC(=O)NC1=O (stereo not drawn)	817
CCN1CCN(S(=O)(=O)c2ccc(/C=C\c3onc(C)c3NC(=O)C3CC3)cc2)CC1	639
CSc1ccc(CNC(=O)C2CCN(c3ccc(N4CCOCC4)nn3)CC2)cc1	638
CCCn1c(=O)sc2cc(S(=O)(=O)N3CCC(C(=O)NC4CCCCC4)CC3)ccc21	967
CCOC(=O)c1cnn(-c2ccc(C(=O)NC(C)C)cc2)c1N	823
CC(NC(=O)c1ccsc1)C(=O)Nc1nc2ccccc2[nH]1 (stereo not drawn)	609
Cc1c(S(=O)(=O)NCC2CC2)c(C)n(C)c1-c1nnc(C2CCC2)o1	899
O=C(Nc1ccccc1)N1CCCC1c1nncn1C1CCCC1 (stereo not drawn)	622
